Results on 1 compound are retold here after patent US20220281930A1, “COMPOSITIONS AND METHODS FOR THE TREATMENT OF PATHOLOGICAL PAIN AND ITCH” (DUKE UNIVERSITY, priority 2019, published 2022).

The subject of series [1] is intracellular chloride ([Cl—]i). The series can be described thus: Secondary screen: Clomeleon chloride imaging in primary mouse neurons. The series is classed as cell-based. On the set-up: chloride reduction (%): concentration or dose not given beside the values. On the procedure: The primary screen encompassed three levels of LUC measurements. The first level of screening yielded a total of 137 compounds with cut-off RLU>125% LUC activity. These 137 compounds were subject to second round of screening, which was carried out in duplicate independent assays to yield the top 103 compounds sorted for highest RLU. The 103 compounds were then subjected to a third round of screening carried out in duplicate independent assays to yield the top 40 compounds which were again ranked. The best 22 of these 40 compounds (ranked for highest RLU activity) were subjected to secondary screening: Cultured neurons were treated with the 22 compounds; RT-qPCR and Clomeleon imaging methodologies (Yeo et al., 2009, J Neurosci 29:14652-14662) were used to determine effects of compounds on KCC2 mRNA expression and [Cl—]i, respectively. Each compound was ranked based on composite scores from primary and secondary screening.
Chloride imaging of primary cultured cortical neurons was conducted as previously described (Kuner and Augustine, 2000, Neuron 27:447-459; Liedtke et al., 2013, Small 9:1066-1075; Yeo et al., 2009, J Neurosci 29:14652-14662). A Clomeleon expression plasmid was transfected into primary cortical neurons by electroporation (Amaxa Nucleofector Device). Transfected neurons were verified by yellow fluorescent protein (YFP) fluorescence, and ratiometric images (excitation at λ=434 nm, dual emission at λ=485 and 535 nm; for resting chloride, six stable frames at […] were captured, which were averaged) were acquired using RATIOTOOL program. Calibration of Clomeleon signals (535 nm/485 nm emission ratio) was performed by using tributyltin-nigericin to establish a standard curve, which was then normalized for measured intraneuronal pH to take into account the pH sensitivity of Clomeleon.
To identify KCC2 gene expression enhancing compounds, cultured primary cortical neurons were cultured from KCC2-luciferase(LUC)-knockin (KCC2-LUCki) mice (Liedtke et al., 2013, Small 9:1066-1075; Yeo et al., 2013, Proc Natl Acad Sci USA 110:4315-4320) and used LUC metrics as readout for activity of the proximal KCC2 promoter (2.5 kB (Yeo et al., 2009, J Neurosci 29:14652-14662)), which drives LUC in this mouse transgenic line. A Z′ factor of 0.94 was obtained. This strategy will not select for long-range enhancers of KCC2 gene expression that act outside the 2.5 kB core KCC2 promoter. 1057 compounds, contained in two NCI libraries (FIG. 1), related to inhibition of growth of malignantly transformed cells were screened. Iterative screening followed by measurements of KCC2 mRNA (RT-qPCR) and intracellular chloride ([Cl—]i), using clomeleon chloride indicator protein (Kuner and Augustine, 2000, Neuron 27:447-459; Yeo et al., 2009, J Neurosci 29:14652-14662), led to decreasing numbers of confirmed and re-confirmed hits, and 4 “winner” compounds were selected (FIG. 1 and Table 3).

In series [2] the test system is δ-cat. The series can be described thus: Nuclear transfer of transfected human δ-cat in N2a cells. The series is classed as cell-based, mouse. An excerpt:
Plasmid containing human δ-catenin (CTNND2, NM_001288717) open reading frame was obtained from GeneCopeia (EX-A4285-M02) and cloned into pCMV-ENTER vector (Origene PS100001). Site-directed mutagenesis using Phusion DNA Polymerase enzyme (Thermofisher F549L) in conjunction with complementary primers bearing the specific mutation were used to generate the S276A […] mutation S276A. PCR was followed by Dpn1 enzyme digestion to remove parental plasmid DNA. All constructs were verified by sequencing. pCS-CMV-tdTomato plasmid was obtained from Addgene (cat. #30530).
To investigate the relevance of δ-cat residue S276, N2a neural cells were studied because these cells transfect at higher efficiency than primary cortical neurons. In our cultures, N2a cells expressed neuronal ßIII-tubulin in elongated processes as determined by immune-labeling as an indicator of their neuronal differentiation. […] This increase in nuclear transfer was very similar to the trafficking we recorded in primary cortical neurons, thus validating the cell line. […] Of note, there was no increase of nuclear transfer of δ-cat(S276A) upon KP treatment (FIG. 8C and FIG. 8D).

Series [3] deals with brain reward mechanisms. As to the kind of experiment: Conditioned place preference (CPP). The settings on record: 30 mg/kg i.p.; KP vs vehicle. The series is classed as in vivo, mouse. Here is the method:
Conditioned place preference (CPP) was conducted using a CPP box, which consists of two conditioning chambers distinguished by visual and sensory cues, along with a small buffering chamber. All mice received a 3-day preconditioning habituation period with free access to both conditioning chambers and the time spent in each chamber was recorded for 15 min on day 3 after habituation. On conditioning days (day 4-10), mice first received the vehicle control (i.p. 5% DMSO, 5% Tween-80 in normal saline) paired with a randomly chosen chamber in the morning. After 4 hours, mice received KP (i.p. 30 mg/kg) or vehicle, paired with the other chamber. During the conditioning, mice were allowed to stay only in the paired chamber for 15 min without access to other chambers. On test day (d11), mice were placed in the buffering chamber with free access to both conditioning chambers and choice behavior was recorded for 15 min. The CPP scores were calculated as post-conditioning time minus preconditioning time spent in the paired chamber.
With these beneficial effects of KP on pathologic pain and itch, whether KP had undesirable effects on the CNS in terms of sedation, impairment of motor stamina, balance and coordination was assessed. […]

For series [4], the system named is synaptophysin. The series can be described thus: Immuno-cytochemistry morphometry of primary human cortical neurons, synaptophysin. The settings on record: 400 nM KP. The class given is cell-based. On the procedure: The neuron-enriched cultures were established from fetal cortical specimens at 15-20 weeks of gestation. The protocols for tissue processing complied with all federal and institutional guidelines. The cultures were plated on PEI (polyethyleneimine solution) substrate and maintained in Neurobasal media supplemented with B27 as previously described (Pelsman et al., 2003, International journal of developmental neuroscience 21:117-124; Yeo et al., 2013, Proc Natl Acad Sci USA 110:4315-4320).
For immunostaining, the cultures were treated for 2-4 days with vehicle or 400 nM KP, fixed with 4% PFA at day 10, and processed for double-staining with anti-KCC2 and anti-synaptophysin or anti-NeuN (see Table 1).
The 0.34 micrometer confocal slices through entire cell layers at different optical fields (n=17-28 for each group) of the fixated cultures were acquired using a Zeiss LSM700 confocal microscope.
Image Z-stacks were analyzed using Imaris 9.2.1 software. Optical density intensity sum values for each stack/channel were divided by corresponding data volumes and the resulting values were normalized to the number of specifically labeled cells within each stack. There were no significant differences in the number of cells between vehicle and KP-treated groups.

Regarding `O=C1Cc2c([nH]c3ccc(Br)cc23)-c2ccccc2N1` [kenpaullone, 9-bromo-7,12-dihydro-indolo [3,2-d] [1]benzazepin-6(5H)-one], the “Clomeleon Score (duplicates)” value in series [1] (Natural Compounds, rank score) was 2. The “chloride reduction (%)” value in series [1] (from the [Cl—]i pair of the same line) was 33.8%. Further, the “chloride [Cl—]i mM” value in series [1] (value after compound, control => treated) is on record as 68 => 23 mM. Also, the “nuclear transfer of δ-cat” value in series [2] (cells transfected with δ-cat(S276A), KP treatment) was “had no effect”; in series [2] (cells transfected with δ-cat(WT), KP vs vehicle), “significantly enhances”. In addition, the CPP scores result in series [3] is “No significant difference in CPP scores”. Besides, the “increased synaptophysin expression relative to vehicle” value in series [4] was 54%.
